Patent publication US20240239814A1, “Complexes Of CU(I) As Antitumor Agents” (priority 2021, published 2024)
Where two headings read alike, the source gives them in different places. Marks after values point to notes of the source that are not given here.

How the values were obtained:
[1] = tested on: human ovarian cancer cells 2008; experiment: MTT cytotoxicity assay, 72 h, 2008
Text: (§1) Human breast (MCF-7), lung (H157), pancreatic (PSN-1) and colon (HCT-15 and LoVo) carcinoma cell lines were obtained from the American Type Culture Collection (ATCC, Rockville, MD). A431 are human cervical carcinoma cells kindly provided by Prof. F. Zunino (Molecular Pharmacology Unit, Experimental Oncology and Molecular Medicine, Istituto Nazionale dei Tumori, Milan, Italy). […] G. Marverti (Dept. of Biomedical Science, University of Modena, Italy).
(§2) Briefly, depending upon the growth characteristics of the cell line, 3-8×10^3 cells well^−1, were seeded in 96-well microplates in growth medium (100 μL) and then incubated at 37° C. in a 5% carbon dioxide atmosphere. After 24 h, the medium was removed and replaced with a fresh one containing the compound to be studied, at the appropriate concentration, dissolved in 0.9% sodium chloride solution just before use. Triplicate cultures were established for each treatment. After 72 h, each well was treated with 10 μL of a 5 mg mL^−1 MTT saline solution and, after 5 h of incubation, 100 μL of a sodium dodecylsulfate (SDS) solution in 0.01 M HCl were added. After an overnight incubation, the inhibition of cell growth induced by the tested complexes was determined by measuring the absorbance of each well at 570 nm using a Bio-Rad 680 microplate reader. Mean absorbance for each drug dose was expressed as percentage of the control and plotted vs. drug concentration. Dose-response curves were fitted and IC50 values were calculated with four parameter logistic model (4PL).
(§3) The cytotoxicity was evaluated by means of the MTT test for 72 h treatment with increasing concentrations of the tested compounds.
(§4) Cytotoxic activity was examined against a panel of human tumor cell lines. […] The growth inhibitory effect was evaluated by means of MTT test. Cells (5-8×10^3 mL^−1, depending on the growth characteristics of the cell line) were treated for 72 h with increasing concentrations of tested compounds. […] SD=standard deviation, -=not detected.
as §3, §4

LoVo MDR cells = experiment: MTT cytotoxicity assay, 72 h, LoVo MDR (multidrug resistant); assay type: cell-based, human; conditions: MTT test, mean ± SD
Text: as §1, §2
(§5) A LoVo cell line retaining a multidrug resistance phenotype was also considered (LoVo MDR). Cross-resistance profiles were evaluated by means of the resistance factor (RF), which is defined as the ratio between the IC50 value for the resistant cells and that arising from the sensitive cells (Table 3).
Cells (5×10^3 mL-1) were treated for 72 h with increasing concentrations of tested compounds. Cytotoxicity was assessed by MTT test. […] Resistant Factor (in brackets) is defined as IC50 resistant/parent line. […]

[2] = tested on: human lung carcinoma cells H157; experiment: MTT cytotoxicity assay, 72 h, H157; assay type: cell-based; conditions: MTT test, mean ± SD
Text: as §1, §2, §3, §4

[3] = tested on: human colon cancer cells LoVo; experiment: MTT cytotoxicity assay, 72 h, LoVo; assay type: cell-based; conditions: MTT test, mean ± SD
Experimental: Triplicate cultures were established for each treatment.
as §5, with “. A” for “A”
Cytotoxicity was assessed by MTT test. […]. Resistant Factor (in brackets) is defined as IC50 resistant/parent line.

[4] = tested on: human breast carcinoma cells MCF-7; experiment: MTT cytotoxicity assay, 72 h, MCF-7; assay type: cell-based; conditions: MTT test, mean ± SD
Text: as §1, §2, §3, §4

[5] = tested on: human colon carcinoma cells HCT-15; experiment: MTT cytotoxicity assay, 72 h, HCT-15; assay type: cell-based; conditions: MTT test, mean ± SD
Text: as §1, §2, §3, §4

[6] = tested on: human cervical carcinoma cells A431; experiment: MTT cytotoxicity assay, 72 h, A431; assay type: cell-based; conditions: MTT test, mean ± SD
Text: as §1, §2, §3, §4

LoVo-OXP cells = experiment: MTT cytotoxicity assay, 72 h, LoVo-OXP (oxaliplatin resistant); assay type: cell-based, human; conditions: MTT test, mean ± SD
Text: as §1, §2, §5
Cells (5×10^3 mL-1) were treated for 72 h with increasing concentrations of tested compounds. Cytotoxicity was assessed by MTT test. […] Resistant Factor (in brackets) is defined as IC50 resistant/parent line.

[7] = tested on: human pancreatic carcinoma cells PSN-1; experiment: MTT cytotoxicity assay, 72 h, PSN-1; assay type: cell-based; conditions: MTT test, mean ± SD
Text: as §1, §2, §3, §4

[8] = Experimental: (§6) The mice were purchased from Charles River, Italy, housed in steel cages under controlled environmental conditions (constant temperature, humidity, and 12 h dark/light cycle), and alimented with commercial standard feed and tap water ad libitum. Animals were observed daily, and body weight and food intake recorded. The Lewis lung carcinoma (LLC) cell line was purchased from ECACC, UK. The LLC cell line was maintained in D-MEM (Euroclone) supplemented with 10% heat-inactivated FBS (Euroclone), 10 mM L-glutamine, 100 U mL^−1 penicillin, and 100 μg mL^−1 streptomycin in a 5% CO2 air incubator at 37° C. […] At day 15, animals were sacrificed, the legs were amputated at the proximal end of the femur, and the inhibition of tumor growth was determined according to the difference in weight of the tumor-bearing leg and the healthy leg of the animals expressed as % referred to the control animals. Body weight was measured every two days and was taken as a parameter for systemic toxicity. All the values are the means±S.D. of not less than three measurements. Multiple comparisons were made by Tukey-Kramer test (** p<0.01; * p or °p<0.05).
(§7) For the assessment of the adverse side effects, changes in body weights of tumor-bearing mice were monitored daily (FIG. 1).

[9] = tested on: murine Lewis lung carcinoma (LLC); experiment: In vivo anticancer activity toward Lewis lung carcinoma; parameters: species or system C57BL mice; conditions: for Average tumor weight (mean ± SD, g) / Inhibition of tumor growth (%): daily i.p. from day 9, measured at day 15, 6: 5 mg kg^−1, 9: 3 mg kg^−1, cisplatin: 1.5 mg kg^−1; for Inhibition of tumor growth (%): referred to control animals
Experimental: as §6, §7
Starting from day 9 after tumor implantation, tested compounds were daily administered i.p. At day 15, mice were sacrified and tumor growth was detected as described above.

[10] = tested on: panel of human tumor cell lines; experiment: Average cytotoxic activity over the cell panel (MTT) compared with reference drugs; conditions: on average over the cell panel
Experimental: as §2, §3
Cytotoxic activity was examined against a panel of human tumor cell lines. […] The growth inhibitory effect was evaluated by means of MTT test. […] SD=standard deviation, -=not detected.

[11] = read-out: IC50 2008, MTT test, mean ± SD, Table 2
[12] = read-out: IC50 2008, MTT test, mean ± SD, Table 1

| Compound | IC50 [1, 11] | IC50 (LoVo MDR cells) | IC50 [2] | IC50 [3] | IC50 [4] | IC50 [5] | IC50 [6] | IC50 [1, 12] | IC50 (LoVo-OXP cells) | IC50 [7] | other results |
| --- | --- | --- | --- | --- | --- | --- | --- | --- | --- | --- | --- |
| COc1ccccc1P(c1ccccc1)c1ccccc1.COc1ccccc1P(c1ccccc1)c1ccccc1.F[B-](F)(F)F.[Cu+] [Compound 11, Bis[diphenyl(2-methoxyphenyl)phosphine] copper(I)tetrafluoroborate] | 400 ± 300 nM |  |  |  |  |  |  |  |  |  | cytotoxicity against human ovarian cancer cells compared with cisplatin and oxaliplatin ([1]; 2008 cells, MTT): the most cytotoxic derivative |
| Bis[tris(4- methylphenyl)phosphine] copper(I) nitrate [Compound 2] |  | 900 ± 600 nM | 3400 ± 200 nM | 1400 ± 100 nM | 3100 ± 600 nM | 500 ± 200 nM | 3000 ± 1400 nM | 1300 ± 300 nM | 1300 ± 500 nM | 300 ± 80 nM |  |
| COc1cccc2c1C(=O)c1c(O)c3c(c(O)c1C2=O)C[C@@](O)(C(=O)CO)C[C@@H]3O[C@H]1C[C@H](N)[C@H](O)[C@H](C)O1 [doxorubicin, reference compound] |  |  |  |  |  |  |  |  |  |  | IC50 (LoVo MDR cells; Homo sapiens, LoVo): 19400 ± 2200 nM; IC50 ([3]; Homo sapiens, LoVo): 1100 ± 500 nM |
| O=C1[O][Pt]2([NH][C@@H]3CCCC[C@H]3[NH]2)[O]C1=O [oxaliplatin, cyclohexane-1,2-diamineethanedioatoplatinum(II), reference compound] | 1700 ± 1000 nM | 1400 ± 800 nM | 11800 ± 3200 nM | 3100 ± 300 nM | 3400 ± 1200 nM | 1300 ± 300 nM | 3700 ± 1000 nM | 1700 ± 1000 nM | 17500 ± 1800 nM | 16100 ± 2500 nM |  |
| F[B-](F)(F)F.Oc1ccccc1P(c1ccccc1)c1ccccc1.Oc1ccccc1P(c1ccccc1)c1ccccc1.[Cu+] [Compound 12, Bis[diphenyl(2-hydroxyphenyl)phosphine] copper(I)tetrafluoroborate] | 1100 ± 300 nM |  |  |  |  |  |  |  |  |  |  |
| Bis[tris(morpholineN- methyl)phosphine]copper(I) tetrafluoroborate [Compound 7] |  | 400 ± 300 nM | 8400 ± 1800 nM | 600 ± 300 nM | 6100 ± 1500 nM | 6400 ± 500 nM | 15000 ± 2200 nM | 9200 ± 1000 nM | 400 ± 200 nM | 12300 ± 1500 nM |  |
| COCOc1ccccc1P(c1ccccc1)c1ccccc1.COCOc1ccccc1P(c1ccccc1)c1ccccc1.F[B-](F)(F)F.[Cu+] [Compound 13, Bis[diphenyl(2-(methoxymethoxy)phenyl)phosphine] copper(I)tetrafluoroborate] | 1500 ± 400 nM |  |  |  |  |  |  |  |  |  |  |
| F[B-](F)(F)F.O=C(O)c1ccccc1P(c1ccccc1)c1ccccc1.O=C(O)c1ccccc1P(c1ccccc1)c1ccccc1.[Cu+] [Compound 10, Bis[2-(diphenylphosphanyl)benzoic acid]copper(I) tetrafluoroborate] |  | 900 ± 400 nM | 900 ± 100 nM | 1500 ± 400 nM | 1100 ± 200 nM | 1800 ± 600 nM | 3800 ± 1100 nM | 300 ± 100 nM | 90 ± 30 nM | 600 ± 10 nM |  |
| F[B-](F)(F)F.O=S(=O)(O)c1ccccc1P(c1ccccc1)c1ccccc1.O=S(=O)(O)c1ccccc1P(c1ccccc1)c1ccccc1.[Cu+] [Compound 14, Bis[2-(diphenylphosphino]benzenesulfonic acid]copper(I) tetrafluoroborate] | 800 ± 200 nM |  |  |  |  |  |  |  |  |  |  |
| Bis[tris(phenylphosphine)] copper(I) nitrate [Compound 1] |  | 500 ± 200 nM | 1600 ± 100 nM | 400 ± 30 nM | 1900 ± 700 nM | 1800 ± 800 nM | 200 ± 10 nM | 2200 ± 100 nM | 300 ± 100 nM | 4500 ± 1800 nM |  |
| F[B-](F)(F)F.O=Cc1ccccc1P(c1ccccc1)c1ccccc1.O=Cc1ccccc1P(c1ccccc1)c1ccccc1.[Cu+] [Compound 9, Bis[2-(diphenylphosphanyl)benzaldehyde]copper(I) tetrafluoroborate] |  | 800 ± 500 nM | 1500 ± 200 nM | 600 ± 200 nM | 1300 ± 300 nM | 800 ± 200 nM | 4700 ± 600 nM | 600 ± 100 nM | 1100 ± 600 nM | 1100 ± 500 nM | tolerability compared with cisplatin ([8]; doses 5 and 3 mg kg^−1 represent ⅓ of the MTD): better tolerated than cisplatin; reduction of the tumor mass ([9]; 3 mg kg^−1 daily i.p., day 15): 83%; Average tumor weight (mean ± SD, g) [9]: 0.098 ± 0.06** g; Inhibition of tumor growth (%) [9]: 83.4%; average cytotoxic activity relative to cisplatin ([10]; times more effective than cisplatin): 4.8 times; average cytotoxic activity relative to oxaliplatin ([10]; times more effective than oxaliplatin): 3.8 times |
| Bis[tris(4- fluorophenyl)phosphine] copper(I) nitrate [Compound 4] |  | 1000 ± 100 nM | 900 ± 100 nM | 900 ± 300 nM | 1400 ± 300 nM | 1100 ± 500 nM | 800 ± 600 nM | 1900 ± 500 nM | 700 ± 100 nM | 6200 ± 900 nM |  |
| N.N.[Cl][Pt][Cl] [cisplatin, cis-diamminedichloroplatinum(II), reference compound] | 2200 ± 500 nM |  | 2100 ± 900 nM |  | 7600 ± 200 nM | 15300 ± 2600 nM | 2100 ± 800 nM | 2200 ± 500 nM |  | 18300 ± 3100 nM | body weight loss ([8]; mouse, in vivo, ip): > 20%; Average tumor weight (mean ± SD, g) [9]: 0.119 ± 0.10** g; Inhibition of tumor growth (%) [9]: 79.8% |
| Bis[tris(N-EthylpiperazineN′- methyl)phosphine]copper(I) tetrafluoroborate [Compound 6] |  | 1200 ± 900 nM | 3800 ± 300 nM | 700 ± 300 nM | 3100 ± 900 nM | 2500 ± 100 nM | 7700 ± 500 nM | 14500 ± 1200 nM | 1300 ± 500 nM | 13300 ± 3200 nM | Average tumor weight (mean ± SD, g) [9]: 0.142 ± 0.09** g; Inhibition of tumor growth (%) [9]: 75.9% |
| Bis[tris(4- methoxyphenyl)phosphine] copper(I) nitrate [Compound 3] |  | 900 ± 200 nM | 1200 ± 10 nM |  | 1300 ± 400 nM | 300 ± 200 nM | 3100 ± 1100 nM | 500 ± 100 nM |  |  |  |
| Bis[tris(thiomorpholineN- methyl)phosphine]copper(I) tetrafluoroborate [Compound 8] |  |  | 5300 ± 1200 nM |  |  | 10200 ± 100 nM |  | 11900 ± 100 nM |  | 7700 ± 1300 nM |  |
| Bis[tris(N-methylpiperazineN′- methyl)phosphine]copper(I) tetrafluoroborate [Compound 5] |  |  | 4300 ± 1200 nM |  |  | 8000 ± 2600 nM |  | 5200 ± 1700 nM |  | 7300 ± 1400 nM |  |
